Data on three molecules can be found in patent publication US7189749B2, “Substituted phenoxyacetic acids” (The Institutes for Pharmaceutical Discovery LLC, priority 1999, dated 2007).

Assay [1] has as its target human aldose reductase (hALR2) (Homo sapiens, UniProt P15121). As to the kind of experiment: inhibition of human aldose reductase (hALR2), methods similar to Butera et al. Type of assay: biochemical. The conditions noted are these: concentration required to inhibit human aldose reductase activity by 50%. The method, then:
Representative compounds of the invention were tested for their potency, selectivity and efficacy as inhibitors of human aldose reductase.

The target in assay [2] is T1, human aldehyde reductase (hALR1) (Homo sapiens, UniProt P14550).
T1 sequence (P14550 1-325): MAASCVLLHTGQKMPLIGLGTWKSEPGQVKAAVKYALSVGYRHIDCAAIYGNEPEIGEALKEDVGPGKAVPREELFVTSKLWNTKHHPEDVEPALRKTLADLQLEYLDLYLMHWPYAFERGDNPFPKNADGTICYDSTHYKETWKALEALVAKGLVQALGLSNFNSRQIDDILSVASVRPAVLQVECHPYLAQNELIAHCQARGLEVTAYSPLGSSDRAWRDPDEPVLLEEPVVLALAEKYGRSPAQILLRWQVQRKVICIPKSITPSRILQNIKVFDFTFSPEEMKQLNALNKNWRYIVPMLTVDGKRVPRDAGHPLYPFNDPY
Briefly: inhibition of human aldehyde reductase (hALR1), methods essentially of Ishii et al. Type of assay: biochemical. The conditions noted are these: for IC50: concentration required to inhibit human aldehyde reductase activity by 50%; for hALR1/hALR2: ratio of hALR1 IC50 to hALR2 IC50, selectivity. How it is done:
In a second assay, a number of the same compounds were tested for their ability to inhibit aldehyde reductase (hAR1), a structurally related enzyme. […] Using this assay, the concentrations required to inhibit human aldehyde reductase activity by 50% (ICSO) were determined.
Since high potency of test compounds as inhibitors of aldose reductase is desirable, low hALR2 IC50 values are sought. On the other hand, high potency of test compounds as inhibitors of aldehyde reductase is undesirable, and high hALR1 IC50s values are sought. Accordingly, the hALR1/hALR2 ratio is used to determine the selectivity of the test compounds.

In assay [1], `O=C(O)COc1cc(F)ccc1C(=O)NCc1nc2c(F)c(F)cc(F)c2s1` [Example 54, {5-Fluoro-2[(4,5,7-trifluoro-benzothiazol-2-ylmethyl)carbamoyl]-phenoxy}-acetic acid] registered an IC50 of 0.011 µM. In addition, in assay [2], inhibition was half-maximal at 22 µM (IC50) and the hALR1/hALR2 is 2,000.

Turning to `O=C(O)COc1cc(F)ccc1C(=S)NCc1nc2c(F)c(F)cc(F)c2s1` [Example 55, {5-Fluoro-2-[(4,5,7-trifluoro-benzothiazol-2-ylmethyl)-thiocarbamoyl]-phenoxy}-acetic acid], half-maximal inhibition in assay [1] (IC50) was put at 0.015 µM. For the same molecule, in assay [2], the IC50 is 17 µM and the hALR1/hALR2 is 1,100.

For `O=C(O)COc1cc(F)ccc1C(=O)NCc1nc2cc(C(F)(F)F)ccc2s1` [Example 56, {5-Fluoro-2-[(5-trifluoromethyl-benzothiazol-2-ylmethyl)-carbamoyl]-phenoxy}-acetic acid], half-maximal inhibition in assay [1] (IC50) required 0.029 µM. Besides, in assay [2], 22 µM corresponded to half-maximal inhibition (IC50) and the hALR1/hALR2 was determined as 760.
